Measured values as given in US20110172296A1, “MODULATION OF TRANSFORMING GROWTH FACTOR-BETA 1 EXPRESSION” (priority 2010, published 2011).
Values joined by “and” are separate entries in the source; they are usually repeats but may differ in a detail not shown here. Equal values may be shown once. In the oligonucleotide strings, read from the 5' end, every base follows the letter of its sugar. An asterisk marks phosphorothioate; unmarked linkages are phosphodiester. Other units and linkages are bracketed, terminal groups are in braces. A string of capitals states the bases alone. e = 2'-O-(2-methoxyethyl) (MOE); [5mC] = 5-methylcytosine; d = 2'-deoxy (DNA)

System: human TGF-beta1 mRNA
Test: Antisense inhibition of human TGF-beta1 mRNA in HuVEC cells, single 10 nM dose, Lipofectamine 2000 (Example 2)
Type: cell-based
Settings: for % inhibition: 10 nM oligonucleotide, HuVEC, relative to untreated control cells, gapmers targeted to SEQ ID NO: 2; for inhibition of a TGF-beta1 mRNA: threshold lists of Oligo IDs, 10 nM
Outline: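 Percent inhibition relative to untreated controls, from qRT-PCR of mRNA corrected for total RNA (RIBOGREEN). Cells were exposed 4 h to 10 nM phosphorothioate 2-13-5 MOE gapmers with Lipofectamine 2000 at 5,000 cells/well. RNA was harvested after roughly 24 h recovery.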

| Substance | % inhibition | inhibition of a TGF-beta1 mRNA |
| --- | --- | --- |
| 414085 (antisense e[5mC]*eT*dA*dA*dA*dG*dG*dA*dG*dA*d[5mC]*dA*dG*dA*dT*eG*e[5mC]*eT*e[5mC]*eA) [compound 414085] | 66% | 60% and 65% |
| 414086 (antisense eT*eT*dG*dA*dA*dT*dT*d[5mC]*d[5mC]*dA*dA*d[5mC]*dA*dA*dT*e[5mC]*eA*e[5mC]*eA*eG) [compound 414086] | 54% | – |
| 414087 (antisense eG*eT*dG*dA*d[5mC]*d[5mC]*dT*dT*d[5mC]*d[5mC]*dA*dA*d[5mC]*dT*dT*eT*eG*eA*eA*eT) [compound 414087] | 77% | 60% and 65% and 70% and 75% |
| 414088 (antisense eT*eT*d[5mC]*dT*dA*dG*d[5mC]*dA*dT*dT*d[5mC]*dT*dA*dG*dA*eA*eT*e[5mC]*e[5mC]*e[5mC]) [compound 414088] | 66% | 60% and 65% |
| 414089 (antisense eA*eA*dT*dT*d[5mC]*dT*dA*dG*d[5mC]*dA*dT*dT*d[5mC]*dT*dA*eG*eA*eA*eT*e[5mC]) [compound 414089] | 18% | – |
| 414090 (antisense eG*eA*dT*dT*d[5mC]*d[5mC]*dA*dA*dT*dG*dT*dT*dT*d[5mC]*dA*eG*e[5mC]*eT*eT*eT) [compound 414090] | 80% | 60% and 65% and 70% and 75% and 80% |
| 414091 (antisense eG*eG*dT*dA*dT*d[5mC]*d[5mC]*dA*d[5mC]*dA*dA*dT*dT*dG*dG*e[5mC]*e[5mC]*eA*eG*eT) [compound 414091] | 64% | 60% |
| 414092 (antisense eG*eA*dG*dA*dT*dA*d[5mC]*d[5mC]*dA*dA*dT*dA*dT*dT*d[5mC]*eT*eG*e[5mC]*eT*eT) [compound 414092] | 86% | 60% and 65% and 70% and 75% and 80% and 85% |
| 414093 (antisense eA*eA*d[5mC]*dA*dT*dT*d[5mC]*d[5mC]*dA*dA*d[5mC]*dA*d[5mC]*dT*dG*eA*eG*eT*eT*e[5mC]) [compound 414093] | 68% | 60% and 65% |
| 414094 (antisense eT*e[5mC]*dA*dA*dG*dA*dG*dG*dT*dT*d[5mC]*dA*dA*dA*d[5mC]*eT*eG*eA*e[5mC]*eA) [compound 414094] | 67% | 60% and 65% |
| 414095 (antisense eA*eA*dT*dT*d[5mC]*d[5mC]*dA*dG*dT*dA*dT*dG*d[5mC]*d[5mC]*dA*eG*eT*eA*eT*eT) [compound 414095] | 46% | – |
| 414096 (antisense e[5mC]*e[5mC]*dA*dA*d[5mC]*d[5mC]*dT*dT*dT*dG*dA*dG*dG*dA*dT*e[5mC]*eT*eT*eG*eG) [compound 414096] | 74% | 60% and 65% and 70% |
| 414097 (antisense eG*eA*dA*dT*d[5mC]*d[5mC]*dA*dA*d[5mC]*dA*dT*dT*dT*d[5mC]*dA*eG*e[5mC]*eT*eT*eT) [compound 414097] | 74% | 60% and 65% and 70% |
| 414098 (antisense eA*eA*dG*dG*dG*dA*dG*dG*dA*dA*dT*dA*dA*dG*dG*eT*e[5mC]*eA*eG*eA) [compound 414098] | 70% | 60% and 65% and 70% |
| 414099 (antisense eG*eT*dA*dG*dG*d[5mC]*dT*dA*dT*dT*dA*dA*dT*dA*dG*eT*eT*eA*eA*eG) [compound 414099] | 37% | – |
| 414100 (antisense eT*eT*d[5mC]*d[5mC]*dA*d[5mC]*dT*d[5mC]*dA*dA*dT*dG*dA*dA*dT*eG*eG*eA*eA*eA) [compound 414100] | 48% | – |
| 414101 (antisense eG*eA*d[5mC]*dA*dG*d[5mC]*dA*dA*dG*dA*d[5mC]*d[5mC]*dA*dA*d[5mC]*eA*e[5mC]*e[5mC]*eT*eT) [compound 414101] | 70% | 60% and 65% and 70% |
| 414103 (antisense eA*eT*dT*d[5mC]*dA*dA*dG*dT*dA*dA*dG*dG*dT*d[5mC]*dT*eA*e[5mC]*eA*e[5mC]*eA) [compound 414103] | 58% | – |
| 414104 (antisense eA*eG*dG*dA*dT*dT*d[5mC]*dA*dA*dG*dT*dA*dA*dG*dG*eT*e[5mC]*eT*eA*e[5mC]) [compound 414104] | 61% | 60% |

| Substance | % inhibition | inhibition of a TGF-beta1 mRNA |
| --- | --- | --- |
| 414105 (antisense eG*eA*dT*dA*dT*d[5mC]*dT*dA*dG*dA*dG*dG*dA*dA*dT*eA*eT*e[5mC]*eT*eA) [compound 414105] | 27% | – |
| 414106 (antisense eA*eT*dT*d[5mC]*d[5mC]*dT*dT*dG*dA*dT*dA*dT*d[5mC]*dT*dA*eG*eA*eG*eG*eA) [compound 414106] | 74% | 60% and 65% and 70% |
| 414107 (antisense eT*eT*d[5mC]*dA*dA*dA*dT*dG*dT*dA*dT*d[5mC]*dT*d[5mC]*dT*eA*eA*eT*eT*eA) [compound 414107] | 7% | – |
| 414108 (antisense e[5mC]*eA*d[5mC]*dA*dT*dG*d[5mC]*dA*dA*dT*d[5mC]*d[5mC]*dA*d[5mC]*d[5mC]*eG*eT*eG*eT*eT) [compound 414108] | 61% | 60% |
| 414109 (antisense eG*eG*d[5mC]*d[5mC]*dA*dA*dT*dT*dT*d[5mC]*d[5mC]*dA*dT*dT*dG*e[5mC]*eA*eT*e[5mC]*eT) [compound 414109] | 80% | 60% and 65% and 70% and 75% and 80% |
| 414110 (antisense eG*eA*dA*d[5mC]*dA*dA*dA*dT*dT*dT*dT*d[5mC]*d[5mC]*dT*dA*eT*eG*eA*eA*eA) [compound 414110] | 14% | – |
| 414111 (antisense eT*eT*dG*dA*dA*d[5mC]*dA*dA*dG*d[5mC]*d[5mC]*dG*dT*d[5mC]*dT*eA*eG*eG*eT*eG) [compound 414111] | 81% | 60% and 65% and 70% and 75% and 80% |
| 414112 (antisense eG*eG*d[5mC]*dA*dG*d[5mC]*dA*dT*d[5mC]*dA*d[5mC]*d[5mC]*dT*dG*dG*eG*eA*eA*e[5mC]*eT) [compound 414112] | 57% | – |
| 414113 (antisense eT*e[5mC]*dT*dG*dG*dG*dA*dA*dA*dA*dA*dG*dA*dG*dT*e[5mC]*e[5mC]*eT*eG*eG) [compound 414113] | 79% | 60% and 65% and 70% and 75% |
| 414114 (antisense eT*eT*dT*d[5mC]*d[5mC]*dA*dA*dG*dA*dG*d[5mC]*d[5mC]*dA*d[5mC]*dA*eG*eA*eA*eG*e[5mC]) [compound 414114] | 46% | – |
| 414115 (antisense eT*eT*dT*dT*d[5mC]*d[5mC]*dA*dT*dA*dA*dT*dA*dA*dA*dG*eG*eA*eA*eT*eT) [compound 414115] | 18% | – |
| 414116 (antisense e[5mC]*eT*dG*dG*dA*dT*dG*dA*dG*dA*dG*dT*dT*dT*dA*e[5mC]*eG*eG*eG*e[5mC]) [compound 414116] | 83% | 60% and 65% and 70% and 75% and 80% |
| 414117 (antisense eA*eG*dT*dG*d[5mC]*dA*dA*dT*dA*d[5mC]*dG*dG*dT*dA*dT*eT*eG*e[5mC]*eA*eG) [compound 414117] | 81% | 60% and 65% and 70% and 75% and 80% |
| 414118 (antisense eA*eA*dT*dG*d[5mC]*d[5mC]*d[5mC]*dA*dA*dG*dT*d[5mC]*d[5mC]*dT*d[5mC]*eA*e[5mC]*e[5mC]*eG*eT) [compound 414118] | 73% | 60% and 65% and 70% |
| 414119 (antisense eT*eG*dT*dG*d[5mC]*dA*dA*d[5mC]*dA*dA*dA*dT*dG*dT*dT*eT*eA*eT*eT*eG) [compound 414119] | 43% | – |
| 414120 (antisense e[5mC]*eA*d[5mC]*dA*d[5mC]*d[5mC]*d[5mC]*dT*dG*dG*dA*dA*d[5mC]*dA*dT*eA*e[5mC]*eA*eA*eA) [compound 414120] | 40% | – |
| 414121 (antisense eG*e[5mC]*dA*dA*dT*dG*d[5mC]*dT*dT*dA*dA*dG*dA*d[5mC]*dA*eA*eG*e[5mC]*e[5mC]*eT) [compound 414121] | 62% | 60% |
| 414122 (antisense eT*e[5mC]*dA*d[5mC]*dT*dA*dA*d[5mC]*dA*d[5mC]*dA*dG*dA*dT*dT*eA*eA*eG*e[5mC]*eA) [compound 414122] | 34% | – |
